Assay results published in patent US20240024403A1, “Compositions and Methods for Managing Weight” (Unigen, Inc., priority 2012, published 2024).

Tested on: CCK peptide
Experiment: CCK peptide levels in DIO mice (CCK ELISA)
Format: in vivo
Details: mice on high fat diet; after 7 weeks of administering; % ± SD
Protocol: Therefore, the effect on CCK peptide levels in mice from treatment with Composition 2 (Magnolia:Morus:Mutamba), produced according to the Example 42, or Composition 3 (Morus:Rosemary:Yerba Mate), produced according to the Example 39, was examined to determine the extent to which weight gain and/or appetite were affected through this peptide hormone pathway. Briefly, CCK peptide levels were measured after 7 weeks of administering Compositions […] and 3 to mice on a high fat diet as described in Example 48. Negative controls include mice on a normal diet (NC) and mice on a high fat diet (HFD), each group administered vehicle only. The positive controls were orlistat and sibutrimine. CCK levels were detected using a CCK ELISA assay kit according to the manufacturer's instructions (Abnova, Taipei City, Tiawan). Measurements were performed using microplate reader Victor™ X3 (PerkinElmer Inc., Waltham, MA) and computer software on the PerkinElmer 2030 workstation.

| Structure (SMILES) | % CCK binding |
| --- | --- |
| CCCCCCCCCCC[C@@H](C[C@@H]1OC(=O)[C@H]1CCCCCC)OC(=O)[C@H](CC(C)C)NC=O [ORI, orlistat] | 72.5 ± 3.4% |
| CC(C)CC(N(C)C)C1(c2ccc(Cl)cc2)CCC1 (centres unmarked) [SIB, sibutramine] | 12.3 ± 1.6% |
